Assay results from US4210638A, “Antiviral composition and method of treating virus diseases” (PCR, Inc., priority 1978, dated 1980).

Assays:
[1] = biological target: T1, HSV-2 induced pyrimidine deoxyribonucleoside kinase (Human herpesvirus 2 strain HG52, UniProt P89446); assay: Phosphorylation by HSV-2 induced pyrimidine deoxyribonucleoside kinase; assay type: biochemical; details: for nmoles phosphorylated/60min.: solutions a, c, d adjusted to the same O.D.
T1 construct: preparation not described in the excerpts
T1 sequence (P89446 whole entry): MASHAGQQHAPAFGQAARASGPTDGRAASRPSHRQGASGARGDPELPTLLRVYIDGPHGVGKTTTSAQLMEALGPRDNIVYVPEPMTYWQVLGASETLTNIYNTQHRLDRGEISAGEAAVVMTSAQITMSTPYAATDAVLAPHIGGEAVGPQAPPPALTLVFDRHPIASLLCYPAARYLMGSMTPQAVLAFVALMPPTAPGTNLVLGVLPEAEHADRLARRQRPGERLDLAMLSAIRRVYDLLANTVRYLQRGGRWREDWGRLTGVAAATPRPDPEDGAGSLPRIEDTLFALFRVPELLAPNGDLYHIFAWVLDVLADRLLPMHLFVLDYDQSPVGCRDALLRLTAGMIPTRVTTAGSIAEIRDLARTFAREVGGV
Source text: The following spots were eluted into H2 O and scanned from 225 to 350 nm: (a) standard, (b) F3 methyl dC standard, […] spot after cytidine deaminase treatment of F3 dT and […] spot after cytidine deaminase treatment of F3 methyl dC. The u.v. absorption profile of F3 dT derived from deamination of F3 methyl dC is identical to that obtained from authentic F3 dT.
Solutions a, c, and d, above, were adjusted to the same O. D. and used as substrates for HSV-2 induced pyrimidine deoxyribonucleoside kinase. Results:
Stock solutions of F3 dT and F3 methyl dC were made up and adjusted to the same concentration as the F3 dT and F3 methyl dC purified chromatographically (solutions a and b, respectively). Usually, F3 methyl dC is phosphorylated 1/6 of the extent that F3 dT is phosphorylated. […] This experiment was performed twice. Results:
Values for chromatographically purified samples are probably lower due to impurities arising from non-acid washed paper.

HEp-2 cells = assay: Cytotoxicity vs HEp-2 cells (colony formation, % survival)
uninfected cells = details: cited from earlier work
[2] = Incubation with acetate buffer (pH 4.5); assay type: physicochemical; details: 9 hours
Procedure: (§1) The results of incubation with HNO2 (pH 4.5) at room temperature were identical to those obtained above.

[3] = tested on: HSV infections of the eye; details: cited from earlier work; for antiviral activity against HSV infections of the eye: Kaufman 1962 / Heidelberger
[4] = Incubation with HNO2 (pH 4.5) at room temperature; assay type: physicochemical
Procedure: as §1

cytidine deaminase = assay: Incubation with crude cytidine deaminase extract of HEP-2 cells (deamination); assay type: in vitro ADME, human; details: crude HEP-2 cytidine deaminase extract; Whatman 3MM chromatography
[5] = in vivo; cited from earlier work
HSV-2 = assay: Antiviral activity vs HSV-2 in HEp-2 cells (plaque assay in BHK cells); assay type: cell-based; details: 100 or 500 μg/ml
Procedure: The culture medium containing the nucleoside analogs at varying concentrations are added to the infected cultures. In the case of HEp-2 cells which contain high deaminase levels, H4 U is incorporated into the medium. At 48 hours, virus is harvested from the cultures by freezing and thawing. The virus produced from each culture is titred by plaque assay in BHK cells. By using this protocol the antiviral effectiveness of F3 methyl dC can be compared directly with the effectiveness of other antiviral agents. Furthermore, by including H4 U in the medium, the effectiveness of F3 methyl dC can be determined without deamination at the nucleoside level.

man = details: extremely high concentrations; cited from earlier work
animal systems = details: usually must be administered very soon after infection; cited from earlier work
human encephalitis = details: in vivo; cited from earlier work
Herpes simplex = details: Shugar 1974; cited from earlier work
vaccinia = details: Shugar 1974; cited from earlier work
vesicular stomatitis = details: Shugar 1974; cited from earlier work

Compound: O=c1[nH]c(=O)n([C@H]2C[C@H](O)[C@@H](CO)O2)cc1C(F)(F)F [F3 dT, 5-trifluoromethyl-2'-deoxyuridine]
- nmoles phosphorylated/4 hrs ([1]; chromatographically purified, value in parentheses (experiment performed twice)): 0.19 nmoles/4 hrs
- nmoles phosphorylated/4 hrs ([1]; chromatographically purified, value outside parentheses): 0.16 nmoles/4 hrs
- extent of phosphorylation compared with F3 dT ([1]; product of cytidine deaminase treatment of F3 methyl dC (d)): to the same extent as F3 dT
- nmoles phosphorylated/60min. ([1]; listed as a): 0.07 nmoles/60min
- nmoles phosphorylated/60min. ([1]; listed as c): 0.08 nmoles/60min
- nmoles phosphorylated/60min. ([1]; listed as d): 0.05 nmoles/60min
- nmoles phosphorylated/4 hrs ([1]; standard solutions, value in parentheses (experiment performed twice)): 0.57 nmoles/4 hrs
- nmoles phosphorylated/4 hrs ([1]; standard solutions, value outside parentheses): 0.48 nmoles/4 hrs
- cytotoxicity at concentrations with antiviral activity (HEp-2 cells; ±H4 U): extremely cytotoxic
- toxicity towards uninfected cells (uninfected cells): exhibit toxicity towards uninfected cells
- modification in acetate buffer [2]: did not lead to modification
- antiviral activity against HSV infections of the eye [3]: does exhibit antiviral activity against infections of the eye
- change on incubation with HNO2 [4]: remained unaltered
- chromatographic change on incubation with cytidine deaminase (cytidine deaminase): remained unchanged chromatographically
- catabolism in the body [5]: rapid catabolism

Compound: O=C1NC(O)CCN1[C@@H]1O[C@H](CO)[C@@H](O)[C@H]1O (stereo partly drawn) [H4 U, tetrahydrouridine, reference compound]
- antiviral activity of H4 U (HSV-2): does not display any antiviral activity
- cytotoxic activity of H4 U (HEp-2 cells; 100 or 500 μg/ml): does not display any cytotoxic activity
- toxicity in man (man): not toxic in man at extremely high concentrations

Compound: O=C(O)CP(=O)(O)O [Phosphonacetic acid]
- efficacy in animal systems (animal systems): effective in animal systems

Compound: O=c1[nH]c(=O)n([C@H]2C[C@H](O)[C@@H](CO)O2)cc1I [IdU, 5-iodo-2'-deoxyuridine]
- toxicity towards uninfected cells (uninfected cells): exhibit toxicity towards uninfected cells
- antiviral activity against HSV infections of the eye [3]: exhibits antiviral activity against HSV infections of the eye
- effectiveness against Herpes Keratitis compared with F3 dT ([3]; in vivo): less effective than F3 dT
- effectiveness in human Herpes encephalitis (human encephalitis): ineffectiveness
- catabolism in the body [5]: rapid catabolism

Compound: CCc1cn([C@H]2C[C@H](O)[C@@H](CO)O2)c(=O)nc1N [5-ethyl-2'-deoxycytidine]
- antiviral activity against HSV infected cells (Herpes simplex): only a low antiviral activity
- activity against vaccinia (vaccinia): no activity
- activity against vesicular stomatitis (vesicular stomatitis): no activity
